A value given as a limit tells only on which side of the number the result lay.

The term melting point denotes the temperature, or range, at which the solid turns liquid. In turn, `N#CCC(=O)Nc1ccc(C(F)(F)F)cc1` registered a melting point of 194 to 196 °C. `COc1ccccc1-n1c(-c2cc(-c3ccc(S(C)(=O)=O)cc3)c(N3CCOCC3)s2)nc2ccccc2c1=O`: the melting point is 222 to 223 °C. `CONC(=O)N1N=C(c2ccc([N+](=O)[O-])c(C)c2)c2cc3c(cc2CC1C)OCO3` (stereo not given) returned a melting point of 192 to 195 °C. The value for `COC(=O)C1Oc2ccc(Cl)cc2C(c2ccccc2)(C(C)C)O1` (stereo not given) was 114 to 115 °C. The value for `CC(=O)c1ccc(S(=O)(=O)NCc2ccncc2)cc1` was 162 to 167 °C. For the molecule `CO[C@@H]1OC(C)(C)O[C@@]1(C)c1cccc(OCc2ccc3ccccc3c2)c1` (racemic), the melting point lay within 100 to 103 °C. The value for `O=C1C=CC2=CN=C(Cc3ccccc3)N3CCC(=C23)N1` was 226 to 228 °C; that for `Brc1cccc(-c2ccnn2-c2ccc3c(c2)OCO3)c1` was 195 to 197 °C; that for `CCCc1nn(C)c2c(=O)[nH]cnc12` was 199 to 200 °C. In turn, `O=C(NC1CCOCC1)c1ccc(-c2cc(-c3c[nH]nc3-c3ccccn3)ccn2)cc1` showed a melting point of 248 °C. In turn, `CCSc1noc(-c2ccc(NS(C)(=O)=O)c(Oc3ccc(F)cc3F)c2)n1` had a melting point of 116 to 119 °C. Turning to `Cc1cccc(C=Cc2ccccc2C#N)n1`, the melting point was in the range of 91 to 92 °C. The value for `OCc1ccnc(Br)c1` was 63.3 to 64.4 °C; that for `COc1ccc(C(=O)c2ccc(F)cc2)c(F)c1` was 89.7 to 90.1 °C. The value for `N#CCCC(=O)c1ccncc1` was 53.5 to 55 °C; that for `O=C(O)CC1(O)CC(CCCCCCc2ccc(Cl)cc2Cl)OC1=O` (stereo not given) was 77 to 79 °C; that for `OC1c2ccc(OCc3ccccc3)cc2OCC1N1CCC(O)(c2ccc(F)cc2)CC1` (stereo not given) was 194 to 195 °C. `CCOc1cc(OCc2nc(-c3ccco3)oc2C)ccc1CCl`: the melting point lay within 145 to 146 °C. The value for `COc1ccc2nscc2c1` was 51 to 55 °C. The value for `CSC[C@H](NCc1ccccc1N)C(=O)O` was 193 °C.

Turning to `COC(=O)c1c(C)[nH]c(C)c1C1=CC(=O)c2ccccc2C1=O`, the melting point was 209 to 210 °C. The value for `COc1ccnc(CCc2nc3cccnc3n2-c2ccc(OCc3ccccc3)c(F)c2)c1` was 168 to 170 °C; that for `CCN1CCCC1CNC(=O)c1sc(C=O)c(C)c1OC` (stereo not given) was 122 to 123 °C; that for `CCCC(CCC)C(=O)O[C@H]1CCC=C2C=C[C@H](C)[C@H](CC[C@@H]3C[C@@H](O)CC(=O)O3)[C@H]21` was 92 to 94 °C. The value for `CC(C)(C)C1=C(O)C(=O)c2ccccc2C1=O` was 89 °C. Molecule `CCCCNc1cncc(C#N)c1` yielded a melting point of 73 °C.

Molecule `CC(=O)OC1CSC(Oc2cc(-c3cncnc3)cnc2F)C(OC(C)=O)C1OC(C)=O` (stereo not given) had a melting point of 96 to 97 °C. The value for `O=C=NC1(c2ccccc2)CCC2(CC1)OCCO2` was 38 to 41 °C. With `CC(C)[C@H](NC(=O)/C=C/c1nccs1)C(=O)N[C@@H](Cc1ccccc1)[C@@H](O)[C@H](O)[C@H](Cc1ccccc1)NC(=O)[C@@H](NC(=O)/C=C/c1nccs1)C(C)C` the figure was above 260 °C; with `COc1cc2c(cc1C)C1(CO2)C(=O)N(CC2CCCCO2)c2ccccc21` (stereo not given), 180 to 182 °C; with `Cc1c(NC(=O)c2cccc(OCCN)c2)c2ccccn2c1C(=O)c1ccc(NC(=O)C(F)(F)F)c(C(=O)OCc2ccccc2)c1`, 219 °C.

With `CC(=O)OC(C)c1ccc2occ(-c3nnn[nH]3)c(=O)c2c1` (stereo not given), the melting point lay in the range of 231 to 232 °C. As for `C/C(=C\c1ccc(OCCN(C)C)cc1)c1ccc2c(c1)SCC(C)(C)CS2`, the melting point lay in the range of 46 to 47 °C. `CS(=O)(=O)Nc1cccc(SCc2ccccc2)n1`: the melting point was in the range of 123 to 125 °C. Regarding `COc1ccc(C=Cc2cc(OC)c(OC)c(OC)c2)cc1OC`, the melting point lay within 150 to 152 °C.

(Values after a melting point compilation (Tetko et al.; mined from patent text by program, amines drawn as free bases though some values may be those of a salt).)
